The source of these data is US20070219220A1, “Pyrazolopyrimidinethione Derivatives, Salts and Solvates Thereof, Preparation Methods and Use Thereof” (priority 2003, published 2007).

Broadly, the LD50 is the dose expected to kill half of the subjects tested.

For data set [1] the following is noted: cited from earlier work.
The test system of another data set is mice with testis removed. Kind of data set: Sexual function (back climbing) of testis-removed mice (Example 10). Type of data set: in vivo, KM mice. As to conditions: for Incidence: back climbing within 2 hours after administration; for Times of back climbing / Number of the animals who performed back climbing: within 2 hours after administration; for Number of the animals who performed back climbing: 10 male mice. The text has this:
Methods: Forty healthy KM male mice with the body weight ranging from 28-32 g and forty healthy KM female mice with body weight ranging from 24-28 g were used. Each male mouse was anesthetized with sodium pentobarbital, and the testes were squeezed into the scrotum. After sterilization, the scrotum was dissected with an operating knife. The testes and epididymis were respectively taken out, and then ligated. The wound were sutured and each of the mice was administrated with 100,000 units of penicillin for three consecutive days. After being bred for one week, the mice were used for the tests. The animals may be employed repeatedly and the interval between any two tests was 72 hours. To the mice, the following compounds were orally administered: compound (1), compound (2), compound (3), and compound (4), each at the dose of 80 mg/kg and 40 mg/kg, respectively. The positive control agent was Sildenafil, at the dose of 80 mg/kg. The control group was given with 1% of sodium carboxymethyl cellulose. At 30 min after the administration, the male mice who had taken the above agents were put into the cages of female mice, with the male-to-female rate of 1:1. There were three males and three females in each cage. The times of back climbing on the female mice performed by the male mice, and the percentage of occurrence were observed within 2 hours after the administration.

Data set [2] can be described thus: Preliminary acute toxicity, Bliss method (Example 13). As to conditions: rat, in vivo, oral and intragastric administration, rats. The protocol: Experimental methods: the toxicity test was conducted by oral and intragastric administration of the pyrazolopyrimidinethione derivatives of the invention using the Bliss method.
For the next data set, the system named is anesthetized dogs. Description: Blood pressure, heart rate and respiration of anesthetized dogs (Example 11). In kind it is in vivo. As to conditions: for arterial blood pressure (systolic and diastolic), heart rate and respiration (frequency and depth), in words: oral 40 mg/kg, in 3 hours after administration. On the procedure:
Methods: eight healthy male dogs with the body weight ranging from 12-15 kg were used. The dogs were anesthetized with 30 mg/kg of sodium pentobarbital. The femoral artery was dissected and inserted with a blood pressure transducer to record the blood pressure. The limbs were pierced with electrodes for recording the electrocardiogram. The respiration belt was wrapped around their chest and the respiration rate was recorded. The apparatus used was RM-6000 Polygraph system (NIHON KOHDEN, Japan). The changes in the arterial blood pressure, the heart rate, and the respiration were observed after the test compound was introduced into the stomach of the anesthetized dogs via 14# catheter.

In data set [3] the test system is rats with testis removed. Description: Penile erection caused by stimulating electric current in rats with testes removed (Example 7). Type of data set: in vivo, wistar rats. As to conditions: for penile swelling time (in words) / latent period of the penile erection (in words): compared with control; for latent period of the penile erection (in words): P<0.001; for Latent period / Swelling time: stimulation 35 min after administration. From the text: Methods: Forty healthy adult male wistar rats were used in the study, with the body weight ranging from 230 g to 250 g. The rats were anesthetized with sodium pentobarbital, and their testes were squeezed into the scrotum. After sterilization, the scrotum was dissected with an operation knife. The testes and epididymis were taken out respectively and then ligated. The wound were sutured and 100,000 unit of penicillin was administrated to each rat for three consecutive days. After breeding for one week, the rats were used for the tests. The animals may be used repeatedly and the interval between any two of the tests was one week. […] Sildenafil at the dose of 50 mg/kg was used as the positive control. The control group is (1% sodium carboxymethyl cellulose). In 35 min after the administration, the penis of the rats was stimulated with SEN-3201 stimulator (NIHON KOHDEN, Japan), with the following parameters: the stimulating voltage of 10V, the time interval (T1) of 250 msec, the deferment time (T2) of 10 msec, the duration (T3) of 500 μsec, and the stimulation rank (n) of 25. At the same time, the latent period (sec) of the penile erection and the penile swelling time (min) were recorded with a three-channel stop-watch.

The subject of the next data set is anesthetized rats. Kind of data set: Blood pressure and heart rate of anesthetized rats (Example 12). In kind it is in vivo, wistar rats. The protocol:
Forty male wistar rats with the body weight ranging from 220-240 g were used in the study. Pharmaceuticals: compound (2) and Sildenafil, which were ground and then suspended with 1% of sodium carboxymethyl cellulose. Apparatus: RM-6000 eight-graph system (NIHON KOHDEN, Japan). The doses for administration and the division of the groups: solvent control group (abbreviated as the control group), 20 mg/kg of compound (2), 40 mg/kg of compound (2), 80 mg/kg of compound (2), and 50 mg/kg of Sildenafil. The administration route is through dodecadactylon. Methods: the male wistar rats were taken out and anesthetized with 35 mg/kg of sodium pentobarbital by injecting into the abdominal cavity, on the basis of their body weight. The rats were fixed on the operation table and were performed with the dissection operation of right carotid artery. The catheter with an external diameter of 1 mm was inserted into the right carotid artery. The blood pressure was measured and the electrodes positioned on the skin of the four limbs were used to record the electrocardiogram limb lead II. The catheter with an external diameter of 2 mm was inserted into the dodecadactylon via incision of the epigastric region, for the administration of the pharmaceuticals. RM-6000 eight-graph system (NIHON KOHDEN, Japan) was employed to record. Observation time: the value before administration, the values at 15, 30, 60, 120 and 180 min after the administration.

A further data set deals with healthy mice. As to conditions: oral 50 mg/kg; within two hours; cited from earlier work.
The subject of data set [4] is rats with testis removed. Kind of data set: Duration of penile erection in rats with testis removed (Example 8). In kind it is in vivo, wistar rats. The following applies: oral 50 mg/kg.
Setting [5] is: prior-art filings, background section.
Where [6] appears, read: 50 mg/kg through dodecadactylon, at 15 min after administration.
Where [7] appears, read: 50 mg/kg through dodecadactylon, at 30 min after administration.
Where [8] appears, read: 50 mg/kg through dodecadactylon, at 60 min after administration.
Setting [9] is: 50 mg/kg through dodecadactylon, at 120 min after administration.
Setting [10] is: 50 mg/kg through dodecadactylon, value before administration.

Like-named read-outs stand apart in the source and are kept apart here. Marks after values point to notes of the source that are not given here. Where only a bound is given, the exact number is not on record here.

On to `CCCc1nn(C)c2c(=O)[nH]c(-c3cc(S(=O)(=O)N4C[C@@H](C)N[C@@H](C)C4)ccc3OCC)nc12` [5-[2-ethoxy-5-(cis-3,5-dimethylpiperazin-1-sulfonyl)phenyl]-1-methyl-3-n-propyl-1,6-dihydro-7H-pyrazolo[4,3d]pyrimidin-7-one], for which, in data set [1] (setting [5]), the LD50 is 772.5 to 1052.1 mg/kg.
With `CCCc1nn(CC)c2c(=S)[nH]c(-c3cc(S(=O)(=O)N4C[C@@H](C)N[C@@H](C)C4)ccc3OCC)nc12` [Compound (1), 5-[2-ethoxy-5-(cis-3,5-dimethylpiperazin-1-sulfonyl)phenyl]-1-ethyl-3-n-propyl-1,6-dihydro-7H-pyrazolo[4,3-d]pyrimidin-7-thione], in the data set on mice with testis removed (oral 40 mg/kg), the Incidence came out at 30%, the “Times of back climbing” value was 4 and the “Number of the animals who performed back climbing” value (shortened to “Number”) came out at 3. Also, in the data set with mice with testis removed (oral 80 mg/kg), the Incidence was determined as 40%, the “Times of back climbing” value was 7* and the “Number” value stood at 4. Also, the median lethal dose (LD50) in data set [2] was > 3000 mg/kg. The “arterial blood pressure (systolic and diastolic), heart rate and respiration (frequency and depth), in words” value (from here on “arterial blood pressure”) in the data set on anesthetized dogs is on record as “did not experience an evident change”. Further, in the data set with rats with testis removed [3], the “penile swelling time (in words)” value is “lengthened” and the “latent period of the penile erection (in words)” value (from here on “latent period … (in words)”) is “evidently shortened”. The “penile swelling time compared with positive control sildenafil (in words)” value in the data set on rats with testis removed [3] (compared with sildenafil 50 mg/kg) is recorded as “more evident”. In the data set on rats with testis removed [3] (oral 20 mg/kg), this compound displayed a Latent period of 28.8 ± 1.7 s and a Swelling time of 1305.1 ± 588.8 s. In the data set on rats with testis removed [3] (oral 40 mg/kg), this compound registered a Latent period of 29.5 ± 4.2 s and a Swelling time of 2943.1 ± 552.9 s.
As to `CCCc1nn(C)c2c(=S)[nH]c(-c3cc(S(=O)(=O)N4C[C@@H](C)N[C@@H](C)C4)ccc3OC)nc12` [Compound (3), 5-[2-methoxy-5-(cis-3,5-dimethylpiperazin-1-sulfonyl)phenyl]-1-methyl-3-n-propyl-1,6-dihydro-7H-pyrazolo[4,3-d]pyrimidin-7-thione], in the data set on mice with testis removed (oral 40 mg/kg), the Incidence came out at 20%, the “Times of back climbing” value is reported as 2 and the “Number” value is given as 2. Also, in the data set with mice with testis removed (oral 80 mg/kg), the Incidence amounted to 30%, the “Times of back climbing” value is reported as 4 and the “Number” value is reported as 3. For the same compound, in data set [2], the median lethal dose (LD50) was determined as 2500 mg/kg. For the same compound, the “arterial blood pressure” value in the data set with anesthetized dogs was “did not experience an evident change”. In addition, in the data set with rats with testis removed [3], the “penile swelling time (in words)” value is reported as “lengthened” and the “latent period … (in words)” value is on record as “evidently shortened”. Moreover, in the data set with rats with testis removed [3] (oral 20 mg/kg), the Latent period is 32.8 ± 4.4 s and the Swelling time was 551.8 ± 350.8 s. In addition, in the data set on rats with testis removed [3] (oral 40 mg/kg), the Latent period was found to be 30.4 ± 2.6 s and the Swelling time was 809.6 ± 247.5 s.
For the compound `CCCOc1ccc(S(=O)(=O)N2C[C@@H](C)N[C@@H](C)C2)cc1-c1nc2c(CCC)nn(C)c2c(=S)[nH]1` [Compound (4), 5-[2-propoxy-5-(cis-3,5-dimethylpiperazin-1-sulfonyl)phenyl]-1-methyl-3-n-propyl-1,6-dihydro-7H-pyrazolo[4,3-d]pyrimidin-7-thione], in the data set on mice with testis removed (oral 40 mg/kg), the Incidence stood at 20%, the “Times of back climbing” value is 3 and the “Number” value is reported as 2. Moreover, in the data set on mice with testis removed (oral 80 mg/kg), the Incidence came out at 30%, the “Times of back climbing” value is 5 and the “Number” value was determined as 3. Besides, the LD50 in data set [2] was > 3000 mg/kg. In addition, in the data set with anesthetized dogs, the “arterial blood pressure” value is reported as “did not experience an evident change”. In the data set with rats with testis removed [3], the “penile swelling time (in words)” value is “lengthened” and the “latent period … (in words)” value is listed as “evidently shortened”.
On to `CCCc1nn(C)c2c(=O)[nH]c(-c3cc(S(=O)(=O)N4CCN(C)CC4)ccc3OCC)nc12` [Sildenafil, reference compound], for which the LD50 in data set [1] (as reported in Chinese Journal of Clinical Pharmacology and Therapeutics (1999, 4(3): 237-240)) is recorded as 635 mg/kg; in data set [1] (setting [5]), 635 mg/kg. Besides, the “blood pressure (in words)” value in the data set on anesthetized rats (50 mg/kg through dodecadactylon) is listed as “began to decrease at 15 min after the administration”; in the data set on anesthetized dogs (Sildenafil 40 mg/kg, mainly diastolic pressure), “apparent effect of decreasing the blood pressure”. Also, the Heart rate is 445 ± 29.7 times/min in the data set on anesthetized rats (setting [6]); 444 ± 29.6 times/min with anesthetized rats (setting [7]); 437 ± 22.8 times/min in the data set on anesthetized rats (setting [8]); 439 ± 22.6 times/min with anesthetized rats (setting [9]); 429 ± 26.1 times/min with anesthetized rats (50 mg/kg through dodecadactylon, before administration). The Systolic pressure in the data set with anesthetized rats (setting [6]) is 90 ± 29.7 mmHg; in the data set on anesthetized rats (setting [7]), 90 ± 29.6 mmHg; with anesthetized rats (setting [8]), 88 ± 22.9 mmHg; in the data set with anesthetized rats (setting [9]) it was 93 ± 22.6 mmHg; with anesthetized rats (setting [10]) it was 120 ± 10.6 mmHg. Besides, the diastolic pressure with anesthetized rats (setting [6]) is on record as 68 ± 29.7 mmHg; in the data set with anesthetized rats (setting [7]), 70 ± 29.6 mmHg; in the data set on anesthetized rats (setting [8]), 68 ± 22.9 mmHg; in the data set with anesthetized rats (setting [9]), 71 ± 22.6 mmHg; in the data set with anesthetized rats (setting [10]) it was 98 ± 16.0 mmHg. Besides, the “effect on the heart rate (in words)” value with anesthetized rats (50 mg/kg, at 15 and 30 minutes after administration) was “increasing the heart rate”. Moreover, the “occurrences of back climbing” value in the data set with healthy mice is recorded as 50%. Also, the “times of back climbing on the female mice performed by the male mice” value in the data set with healthy mice was 19. Besides, in the data set on mice with testis removed (oral 80 mg/kg), the Incidence was determined as 70%. For the same compound, the “Number” value in the data set with mice with testis removed (oral 80 mg/kg) is given as 6*. For the same compound, the “how long the penile swelling effect lasts after administration” value in the data set on rats with testis removed [4] is “about 1 hour”. Moreover, the Penile swelling time in the data set with rats with testis removed [4] (at 1 h after administration) is 1067.0 ± 204.5 s; in the data set on rats with testis removed [4] (at 3 h after administration), 44.0 ± 11.3 s; in the data set with rats with testis removed [4] (at 6 h after administration), 38.8 ± 5.6 s; in the data set with rats with testis removed [4] (at 24 h after administration), 61.0 ± 8.7 s; in the data set with rats with testis removed [4] (value before administration), 62.8 ± 7.7 s. For the same compound, the “penile swelling time compared with control group (in words)” value with rats with testis removed [4] (at 3 hr after the administration) is “shorter than that of the control group”. In the data set with rats with testis removed [3] (oral 50 mg/kg), this compound came in with a Latent period of 28.9 ± 1.7 s. For the same compound, in the data set on rats with testis removed [3] (oral 50 mg/kg), the Swelling time is 2272.5 ± 326.2 s.
